Assay results: the NIST ThermoML archive (doi:10.1021/acs.jced.7b00221)

Assay: xn = mol fraction of the nth substance listed
Settings: 100 kPa, Liquid; for viscosity: Cone and plate viscometry; for mass density: Vibrating tube method

CCCCCCn1cc[n+](C)c1C.O=S(=O)([N-]S(=O)(=O)C(F)(F)F)C(F)(F)F + CCCCCCCCCCCCCC[P+](CCCCCC)(CCCCCC)CCCCCC.O=S(=O)([N-]S(=O)(=O)C(F)(F)F)C(F)(F)F
viscosity [mPa·s]
Settings | 278.15 K | 283.15 K | 288.15 K | 293.15 K | 298.15 K | 303.15 K | 308.15 K | 313.15 K | 318.15 K | 323.15 K
x2 = 0.2 | 707 | 483 | 336 | 242 | 179 | 136 | 106 | 84 | 68 | 55
x2 = 0.4 | 932 | 634 | 442 | 317 | 234 | 177 | 137 | 107 | 86 | 71
x2 = 0.596 | 1000 | 683 | 477 | 342 | 252 | 190 | 146 | 115 | 92 | 75
x2 = 0.749 | 1015 | 698 | 490 | 353 | 261 | 196 | 151 | 119 | 95 | 77
x2 = 0.898 | 1130 | 786 | 555 | 400 | 297 | 224 | 173 | 135 | 108 | 80

CC[P+](CC)(CC)COCCOC.O=S(=O)([N-]S(=O)(=O)C(F)(F)F)C(F)(F)F + CCCCCCCCCC[P+](CC)(CC)CC.O=[N+]([O-])c1cn[n-]c1
x2 = 0
Settings | viscosity [mPa·s]
278.15 K | 84
283.15 K | 65
288.15 K | 51

CCCCCC[n+]1ccn(C)c1.O=S(=O)([N-]S(=O)(=O)C(F)(F)F)C(F)(F)F + CCCCCCCC[P+](CC)(CC)CC.O=[N+]([O-])c1cn[n-]c1
x2 = 0
Settings | mass density [kg/m3]
283.15 K | 1385.6
288.15 K | 1381
293.15 K | 1376.5
295.15 K | 1374.6
298.15 K | 1371.9
303.15 K | 1367.3
308.15 K | 1362.8
313.15 K | 1358.3
318.15 K | 1353.7
323.15 K | 1349.2
328.15 K | 1344.7
333.15 K | 1340.3
338.15 K | 1335.8
343.15 K | 1331.4
348.15 K | 1326.9
353.15 K | 1322.5

CCCCCCn1cc[n+](C)c1C.O=S(=O)([N-]S(=O)(=O)C(F)(F)F)C(F)(F)F + CCCCCCCC[P+](CC)(CC)CC.O=[N+]([O-])c1cn[n-]c1
x2 = 0
Settings | mass density [kg/m3]
283.15 K | 1373
288.15 K | 1368.4
293.15 K | 1363.9
295.15 K | 1362.1
298.15 K | 1359.5
303.15 K | 1355.1
308.15 K | 1350.8
313.15 K | 1346.4
318.15 K | 1342
323.15 K | 1337.6
328.15 K | 1333.2
333.15 K | 1328.9
338.15 K | 1324.5
343.15 K | 1320.2
348.15 K | 1315.8
353.15 K | 1311.5

CC[P+](CC)(CC)COCCOC.O=S(=O)([N-]S(=O)(=O)C(F)(F)F)C(F)(F)F + CCCCCCC[P+](CC)(CC)CC.O=[N+]([O-])c1cn[n-]c1
x2 = 0
Settings | viscosity [mPa·s]
278.15 K | 84
283.15 K | 65
288.15 K | 51

CCCCCCCCCCCCCC[P+](CCCCCC)(CCCCCC)CCCCCC.O=S(=O)([N-]S(=O)(=O)C(F)(F)F)C(F)(F)F + CCCCCC[n+]1ccn(C)c1.O=S(=O)([N-]S(=O)(=O)C(F)(F)F)C(F)(F)F
viscosity [mPa·s]
Settings | 278.15 K | 283.15 K | 288.15 K | 293.15 K | 298.15 K | 303.15 K | 308.15 K | 313.15 K | 318.15 K | 323.15 K
x1 = 0.2 | 390 | 280 | 205 | 153 | 118 | 92 | 74 | 60 | – | –
x1 = 0.398 | 652 | 459 | 329 | 242 | 183 | 141 | 111 | 89 | 72 | 60
x1 = 0.596 | 873 | 611 | 434 | 316 | 236 | 180 | 140 | 111 | 90 | 73
x1 = 0.748 | 1019 | 706 | 500 | 362 | 270 | 204 | 158 | 124 | 100 | 81
x1 = 0.903 | 1114 | 774 | 547 | 396 | 293 | 221 | 171 | 134 | 107 | 86

CCCC[n+]1cccn1C.O=S(=O)([N-]S(=O)(=O)C(F)(F)F)C(F)(F)F [1-butyl-2-methylpyrazolium bis(trifluoromethylsulfonyl)imide] + CCCCCCSC(N(C)C)=[N+](C)C.O=S(=O)([N-]S(=O)(=O)C(F)(F)F)C(F)(F)F
mass density [kg/m3]
Settings | x2 = 0.251 | x2 = 0.502 | x2 = 0.748
283.15 K | 1431.2 | 1400.4 | 1375.8
288.15 K | 1426.6 | 1395.7 | 1371.4
293.15 K | 1421.9 | 1391.4 | 1366.9
295.15 K | 1420.1 | 1389.9 | 1365.1
298.15 K | 1417.3 | 1387.4 | 1362.4
303.15 K | 1412.7 | 1382 | 1357.9
308.15 K | 1408.1 | 1377.6 | 1353.5
313.15 K | 1403.5 | 1373.2 | 1349
318.15 K | 1398.9 | 1368.8 | 1344.6
323.15 K | 1394.3 | 1364.7 | 1340.2
328.15 K | 1389.7 | 1360.4 | 1335.8
333.15 K | 1385.2 | 1356 | 1331.4
338.15 K | 1380.6 | 1351.7 | 1327
343.15 K | 1376.1 | 1347.3 | 1322.6
348.15 K | 1371.6 | 1342.8 | 1318.3
353.15 K | 1367.1 | 1338.4 | 1313.9

CCCCCCn1cc[n+](C)c1C.O=[N+]([O-])c1cn[n-]c1 [1-hexyl-2,3-dimethylimidazolium 4-nitropyrazolide] + CCCCCCCC[P+](CC)(CC)CC.O=S(=O)([N-]S(=O)(=O)C(F)(F)F)C(F)(F)F
viscosity [mPa·s]
Settings | 278.15 K | 283.15 K | 288.15 K | 293.15 K | 298.15 K | 303.15 K | 308.15 K | 313.15 K | 318.15 K | 323.15 K
x1 = 0.101 | 401 | 284 | 204 | 151 | 115 | 90 | 72 | 57 | – | –
x1 = 0.299 | 620 | 421 | 293 | 211 | 156 | 120 | 93 | 74 | 60 | –
x1 = 0.499 | 992 | 636 | 423 | 292 | 209 | 154 | 118 | 91 | 72 | 59
x1 = 0.701 | 2252 | 1345 | 836 | 543 | 369 | 259 | 188 | 140 | 107 | 84
x1 = 0.899 | 6554 | 3416 | 1886 | 1108 | 689 | 450 | 307 | 216 | 157 | 119

CCCCCCn1cc[n+](C)c1.O=[N+]([O-])c1cn[n-]c1 [1-hexyl-3-methylimidazolium 4-nitropyrazolide] + CCCCCCCC[P+](CC)(CC)CC.O=S(=O)([N-]S(=O)(=O)C(F)(F)F)C(F)(F)F
viscosity [mPa·s]
Settings | 278.15 K | 283.15 K | 288.15 K | 293.15 K | 298.15 K | 303.15 K | 308.15 K | 313.15 K | 318.15 K | 323.15 K
x1 = 0.1 | 402 | 284 | 205 | 152 | 116 | 90 | 72 | 58 | – | –
x1 = 0.299 | 470 | 325 | 230 | 168 | 127 | 98 | 77 | 62 | 51 | –
x1 = 0.499 | 639 | 428 | 294 | 209 | 154 | 116 | 90 | 71 | 57 | –
x1 = 0.701 | 1045 | 660 | 432 | 295 | 209 | 154 | 116 | 90 | 71 | 57
x1 = 0.9 | 2181 | 1262 | 765 | 488 | 326 | 227 | 164 | 122 | 93 | 74

CCCCCCCCCC[P+](CC)(CC)CC.O=[N+]([O-])c1cn[n-]c1 [decyltriethylphosphonium 4-nitropyrazolide] + CC[P+](CC)(CC)COCCOC.O=S(=O)([N-]S(=O)(=O)C(F)(F)F)C(F)(F)F
viscosity [mPa·s]
Settings | 278.15 K | 283.15 K | 288.15 K | 293.15 K | 298.15 K | 303.15 K | 308.15 K | 313.15 K | 318.15 K | 323.15 K
x1 = 0.1 | 103 | 79 | 62 | 49 | – | – | – | – | – | –
x1 = 0.25 | 160 | 120 | 91 | 72 | 57 | – | – | – | – | –
x1 = 0.499 | 334 | 239 | 174 | 131 | 101 | 79 | 64 | 52 | – | –
x1 = 0.75 | 716 | 486 | 337 | 241 | 178 | 135 | 104 | 82 | 66 | 55
x1 = 0.9 | 1198 | 788 | 531 | 370 | 265 | 195 | 149 | 115 | 91 | 73

CCCCCCC[P+](CC)(CC)CC.O=[N+]([O-])c1cn[n-]c1 [triethylheptylphosphonium 4-nitropyrazolide] + CC[P+](CC)(CC)COCCOC.O=S(=O)([N-]S(=O)(=O)C(F)(F)F)C(F)(F)F
viscosity [mPa·s]
Settings | 278.15 K | 283.15 K | 288.15 K | 293.15 K | 298.15 K | 303.15 K | 308.15 K | 313.15 K | 318.15 K | 323.15 K
x1 = 0.101 | 103 | 80 | 62 | 50 | – | – | – | – | – | –
x1 = 0.248 | 135 | 101 | 78 | 61 | 50 | – | – | – | – | –
x1 = 0.5 | 234 | 170 | 126 | 96 | 75 | 59 | – | – | – | –
x1 = 0.75 | 474 | 328 | 231 | 168 | 126 | 97 | 76 | 61 | 50 | –
x1 = 0.901 | 761 | 510 | 350 | 249 | 182 | 137 | 105 | 84 | 66 | 54
